From US10799597B2, “Subcutaneous administration of antibody-drug conjugates for cancer therapy” (Immunomedics, Inc., priority 2017, dated 2020)
“And” between values parts separate entries of the source, which are not always exact repeats. Equal entries are not always repeated.

Assays:
[1] = Tolerability in Cynomolgus monkeys; format: in vivo, Cynomolgus monkeys (Macaca fascicularis)
Description: FIG. 5C. Tolerability of hRS7-CL2A-SN-38 in Cynomolgus monkeys. […] All animals were bled on day −1, 3, and 6. Four monkeys were bled on day 11 in the 0.96 mg/kg group, 3 in the 1.92 mg/kg group. Changes in neutrophil counts in Cynomolgus monkeys.
FIG. 5D. Tolerability of hRS7-CL2A-SN-38 in Cynomolgus monkeys. […] All animals were bled on day −1, 3, and 6. Four monkeys were bled on day 11 in the 0.96 mg/kg group, 3 in the 1.92 mg/kg group. Changes in platelet counts in Cynomolgus monkeys.

[2] = Tolerability in Swiss-Webster mice; format: in vivo
advanced GI cancers = test: Phase I/II trial of IMMU-132 in patients with advanced GI cancers: best response by RECIST and time to progression; format: in vivo, human; details: for median TTP: SD patients
Description: Patients with metastatic cancers were enrolled after failing standard therapy, starting at a dose of 8.0 mg/kg given on days 1 and 8 of a 3-week cycle. […]

[3] = one gastric cancer patient with SD

## IMMU-132: ADC of the humanized hRS7 anti-Trop-2 antibody conjugated by a pH-sensitive linker (CL2A) to SN-38
[1]; 2×0.96 mg SN-38/kg, transient decreases
  blood count values: did not fall below normal ranges
[1]; cynomolgus monkey, in vivo
  MTD, human equivalent dose: 2×0.3 to 0.6
[2]; 2 highest dosage groups, upper end of normal range 115 mmol/L
  chloride levels, range: 116 to 127 mmol/L
[2]; 2 i.p. doses over 3 days of 4, 8, and 12 mg SN-38/kg
  weight loss: minimal transient weight loss
[2]; 2×8 mg/kg group
  mice with elevated chloride levels: 57%
[2]; 2×8 mg/kg, of 7 mice
  mice with slightly elevated glucose levels: 5
[2]; 2×8 mg/kg, upper end of normal 263 mg/dL
  elevated glucose levels, range: 273 to 320 mg/dL
[2]; 2×12 mg/kg group
  mice with elevated chloride levels: 100%
[2]; seven days after treatment, all 3 treatment groups, normal limit 298 U/L
  aspartate transaminase (AST): rose above normal levels
Advanced GI cancers; 29 CRC patients (9 at 10 mg/kg, 20 at 8 mg/kg)
  PR (partial response) as best response by RECIST, number of patients: 1
Advanced GI cancers; CRC patient with PR
  target lesion change of the PR: −65%
  time to progression (TTP) for the PR: ≥ 50 wks
Advanced GI cancers; CRC with KRAS mutations
  median TTP: ≥ 19.1 wks
Advanced GI cancers; CRC, 14 SD patients (5 continuing)
  median TTP for the SD patients: ≥ 21 wks
Advanced GI cancers; esophageal cancer
  TTP of the PR: ≥ 30 wks
  duration of SD in individual patients: ≥ 17.4 wks and 21.9 wks and 26.3 wks and 29.9 wks
Advanced GI cancers; [3]
  ongoing TTP: ≥ 29 wks
  target lesion reduction: 19%
Advanced GI cancers; pancreatic cancer
  median TTP: 15.0 wks
